# Like-named read-outs stand apart in the source and are kept apart here.
# What was measured:
# [1] = tested on: human Oct4 promoter; test: Oct4-luc luciferase reporter assay (stably transfected CV1 cells); assay type: cell-based; conditions: for fold induction at 1 µM: compound at 1 μM, Oct4-luc cells, triplicates
# [2] = tested on: human Nanog promoter; test: Nanog-luc luciferase reporter assay (stably transfected CV1 cells); assay type: cell-based
# [3] = tested on: OG2 MEFs; test: iPSC derivation from 4F (OSKM)-transduced OG2 MEFs in iSF1 media (Oct4-GFP colonies); assay type: cell-based, mouse
# Method: Recently, a serum-free media (iSF1) was developed to facilitate the generation of mouse iPSCs (39). The effect of compound OAC1 in the 4F-induced reprogramming was tested in iSF1 media. OG2 MEFs, derived from transgenic mice expressing the Oct4 promoter-driven GFP reporter (Oct4-GFP) (40), were transduced with retroviruses expressing the 4F reprogramming factors, Oct4, Sox2, Klf4, and c-Myc. The 4F-transduced cells were transferred to iSF1 media two days after viral transduction and this day was designated as day 0 (FIG. 3A). Treatment of compound OAC1 started on day 1 and lasted for 7 days. […] At day 5, a more than 3-fold increase in the number of GFP-positive colonies was detected in OAC1-treated, 4F-transduced cells (4F+OAC1), compared to vehicle-treated, 4F-transduced cells (FIG. 3B, C). […] The number of GFP-positive colonies in 4F-treated cells at day 8 (average of 200) was less than the number of GFP-positive colonies in 4F+OAC1-treated cells at day 5 (average of 350) (FIG. 3B, C).
# iPSC Derivation in iSF1 Media: OG2 MEFs were seeded onto 6-well plates at the density of 3×10^4 cells per well in DMEM medium with 10% FBS, 0.1 mM NEAA, and 0.1 mM L-glutamine, 24 hr before transduction. Freshly prepared viruses of the 4F, Oct4, Sox2, c-Myc, and Klf4, were added to the cells. Two days after viral infection, the transduced OG2 MEFs were split into new 6-well plates with irradiated MEF feeders and cultured in iSF1 reprogramming media containing high glucose DMEM, 10% knockout serum, 0.5% N2, 5 ng/ml b-FGF, 2 mM L-glutamine, 0.1 mM 2-mercaptoethanol, 0.1 mM NEAA and 1000 U/ml of LIF. This day was defined as day 0. On day 1, 1 μM of each compound (OAC1, OAC2, and OAC3) was added to the 4F-transduced OG2 MEFs. Treatment was continued for 1 week. When iPSC colonies emerged, these colonies were picked for expansion on the irradiated MEF feeders in mouse ESC medium.
# [4] = tested on: OCT4 promoter; test: Bisulfite genomic sequencing of OCT4 promoter in IMR90 fibroblasts; assay type: cell-based, human; conditions: IMR90 fibroblasts treated for two days
# Method: To uncover the mechanism of OAC 1-mediated improvement of reprogramming efficiency, it was tested whether OAC 1 functions through regulation of DNA methylation status on the endogenous Oct4 promoter. Human IMR90 fibroblast cells were treated with OAC1 or vehicle control for two days.
# Bisulfite Genomic Sequencing: Genomic DNA was isolated from human IMR90 fibroblasts, MEFs, mouse ESCs, 4F+OAC1 and 4F+OAC2-iPSCs by digestion with proteinase K, followed by phenolchloroform extraction and ethanol precipitation. Bisulfite conversion of genomic DNAs was carried out using the EZ DNA Methylation-Gold kit (Zymo Research) according to manufacturer's instruction. The bisulfite-modified DNA was then used as a template for PCR to amplify the promoter regions of Oct4 and Nanog using PCR primers for human OCT4 (1), mouse Oct4 (52) and Nanog (2). The amplified products were cloned into the pCR2.1-TOPO cloning vector (Invitrogen), and 10 randomly selected clones were sequenced with T7 or M13R primers.
# [5] = OAC1 1 μM, BIO 2 μM, BIX 2 μM, AzaC 2 μM, Vc 25 μg/ml, Am580 10 nM, tranylcypromine 5 μM, VPA 0.5 mM, two days
# [6] = triplicate luciferase reporter assays
structure (smiles),measurement,setting,value
"O=C(Nc1cc2cc[nH]c2cn1)c1ccccc1 [OAC1, N-(1H-6-azaindol-5-yl)benzamide]",activation of Oct4-luc at 50 nM,"[1]; 50 nM, two days after compound treatment",activated Oct4-luc considerably
same,fold induction at 1 µM,"[1]; Homo sapiens, CV-1, 24 h, read-out: Oct4-luc Activity",≥ 1.8
same,"induction of Oct4-luc, comparison with known reprogramming enhancers (in words)",[1]; [5],potent induction
same,fold induction at 1 µM,[1]; read-out: Oct4-luc fold Induction,5
same,concentration of highest induction of Oct4-luc,"[1]; dose response 50 nM to 1 μM, 2 to 7 days",1 µM
same,activation of human Oct4 reporter (in words),[1]; [6],considerable activation
same,activation of Nanog-luc at 50 nM,[2]; 50 nM,substantial activation
same,fold induction at 1 µM,"[2]; Chlorocebus aethiops, CV-1, compound at 1 μM, Nanog-luc cells, triplicates",4.5
same,"induction of Nanog-luc, comparison with known reprogramming enhancers (in words)",[2]; [5],potent induction
same,activation of human Nanog reporter (in words),[2]; [6],considerable activation
same,Colony numbers,"[3]; MEFs in iSF1 media, OSKM, seeding 3 × 10^4, day 8, 1 μM compound",800
same,Reprogramming efficiency,"[3]; MEFs in iSF1 media, OSKM, seeding 3 × 10^4, day 8, colony numbers divided by seeding cell numbers",2.75%
same,day at which GFP+ colonies started to appear,"[3]; iSF1 media, 4F+compound, days after transfer to iSF1 media",3 days
same,increase in the number of GFP-positive colonies compared to vehicle-treated 4F-transduced cells,"[3]; iSF1 media, day 5",more than 3 fold
same,number of GFP-positive colonies (average),"[3]; iSF1 media, day 5",350
same,reprogramming efficiency of 4F+compound relative to 4F alone in the initial Yamanaka study,[3]; not a direct comparison,more than 20 fold
same,OCT4 promoter methylation status versus DMSO,[4],no significant difference

# Reference: patent US8962322B2, “Enhancers of induced pluripotent stem cell reprogramming” (City of Hope, priority 2012, dated 2015)
